Tested on: Rats operated on lnfraorbital nerve
Experiment: Rats operated on infraorbital nerve (ligature): response/nociceptive threshold measured as aversive reactions
Assay type: in vivo
Excerpt: Figures 1 and 2: Refering to example 7 they show the high efficacy of Cizolirtine in a model for the central neuropathic pain, the ligature of the infraorbital nerve.
Rats operated on lnfraorbital nerve
Rats were operated placing a ligature around the infraorbital nerve on one side. Following this operation the response threshold in (g) is reduced considerably if comparing the ipsilateral and contralateral side to the response pre ligature (Fig. 2) measured as aversive reactions. […] Saline produced no modification of the nociceptive threshold.

SMILES: CN(C)CCOC(c1ccccc1)c1ccnn1C (racemic) [Cizolirtine, (±)-5-{α-[2-(dimethylamino)ethoxy]benzyl}-1-methyl-1H-pirazole]
- nociceptive threshold (%) (i.p., 80 mg/kg, ipsilateral side, rats with ligature around the infraorbital nerve, Fig. 1): strong inducement of the nociceptive threshold
- efficacy in a model for the central neuropathic pain, the ligature of the infraorbital nerve (legend of Figures 1 and 2, referring to example 7): high efficacy

Source: patent publication EP1642577A1, “Derivatives of aryl (or heteroaryl) azolylcarbinols for the treatment of central neuropathic pain” (Laboratorios Dr. Esteve S.A., priority 2004, dated 2006)
